Read-outs that look alike come from different tables or passages of the source.
Columns and labels:
[1] = molecular target: T1, HBV core protein (C-terminal truncated core protein, 149 amino acids of the N-terminal assembly domain, BODIPY-FL labelled) (UniProt P03146); test: Biochemical capsid assembly assay (fluorescence quenching)
T1 construct: fused on or other part: A single cysteine added after residue 149, at position 150; It carries the BODIPY-FL maleimide label
Procedure, shortened: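 Fluorescence quenching of BODIPY-FL-labelled core dimers (1.0 to 2.0 μM) in 50 mM HEPES pH 7.5; compounds at 8 concentrations, 0.5 log-unit dilutions from top 100, 31.6 or 10 μM, 0.5% DMSO. Assembly started with NaCl to […]; fluorescence (ex 477/em 525 nm) read after 6 min. EC50 by non-linear regression.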

HBV (HepAD38 cells) = test: HBV replication assay: determination of HBV DNA from the supernatants of HepAD38 cells; assay type: cell-based; details: Hepatitis B virus, 144 h, HBV DNA in HepAD38 supernatant at day 6, qPCR, read-out: Cell activity
Procedure, shortened: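 HepAD38 cells seeded without tetracycline and treated with half-log compound dilutions; tetracycline-treated wells serve as cell control. On day 6, supernatant HBV DNA was purified and quantified by real-time PCR against plasmid standards; EC50 from non-linear regression of relative copy numbers, three experiments in triplicate.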

[2] = assembly started with NaCl, fluorescence read after 6 min, read-out: Assembly activity

T1 sequence (P03146 whole entry, the tested form may be a part): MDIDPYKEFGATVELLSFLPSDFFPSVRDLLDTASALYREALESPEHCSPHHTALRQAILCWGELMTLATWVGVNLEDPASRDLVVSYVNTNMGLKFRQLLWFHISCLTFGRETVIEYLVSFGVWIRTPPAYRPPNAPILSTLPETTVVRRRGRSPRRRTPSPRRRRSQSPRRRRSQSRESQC

SMILES | IC50 [1, 2] | EC50 (HBV (HepAD38 cells)) | IC50 ([1]; read-out: Assembly activity, assembly started with NaCl, fluorescence read after 6 min)
O=C(c1cc2ccccc2[nH]1)N1CCc2nn3c(c2C1)C(=O)N(CCO)C1(CC3)CC1 [Example 89, 13′-(2-hydroxyethyl)-4′-(1H-indole-2-carbonyl)-4′, 8′,9′,13′-tetraazaspiro[cyclopropane-1,12′-tricyclo[7.5.0.0^2,7]tetradecane]-1′,7′-dien-14′-one] | < 5 µM | < 1 µM | –
O=C(c1cc2ccccc2[nH]1)N1CCc2nn3c(c2C1)C(=O)N(CCOCc1ccccc1)C1(CC3)CC1 [Example 90, 13′-[2-(benzyloxy)ethyl]-4′-(1H-indole-2-carbonyl)-4′,8′,9′,13′-tetraazaspiro[cyclopropane-1,12′-tricyclo[7.5.0.0^2,7]tetradecane]-1′,7′-dien-14′-one] | < 5 µM | < 1 µM | –
O=C(c1cc2ccccc2[nH]1)N1CCc2onc(C(=O)N3CCC(O)CC34CC4)c2C1 (stereo not shown) [Example 95, 4-[5-(1H-indole-2-carbonyl)-4H,5H,6H,7H-[1,2]oxazolo[4,5-c]pyridine-3-carbonyl]-4-azaspiro[2.5]octan-7-ol] | < 5 µM | < 1 µM | –
O=C(c1cc2ccccc2[nH]1)N1CCc2onc(C(=O)N3CCCOCC34CC4)c2C1 [Example 96, 4-[5-(1H-indole-2-carbonyl)-4H,5H,6H,7H-[1,2]oxazolo[4,5-c]pyridine-3-carbonyl]-8-oxa-4-azaspiro[2.6]nonane] | < 5 µM | < 1 µM | –
CN(C(=O)c1noc2c1CN(C(=O)c1cc3ccccc3[nH]1)CC2)C1(c2ccc(C(=O)O)cc2)CC1 [Example 97, 4-{1-[N-methyl-5-(1H-indole-2-carbonyl)-4H,5H,6H,7H-[1,2]oxazolo[4,5-c]pyridine-3-amido]cyclopropyl}benzoic acid] | < 5 µM | < 1 µM | –
CN(C(=O)c1noc2c1CN(C(=O)c1cc3ccccc3[nH]1)CC2)C1(c2ncc(C(=O)O)cn2)CC1 [Example 98, 2-{1-[N-methyl-5-(1H-indole-2-carbonyl)-4H,5H,6H,7H-[1,2]oxazolo[4,5-c]pyridine-3-amido]cyclopropyl}pyrimidine-5-carboxylic acid] | < 5 µM | 1 to 10 µM | –
C[C@@H](NC(=O)c1noc2c1CN(C(=O)c1cc3cc(F)c(Cl)cc3[nH]1)CC2)C(F)(F)F [Example 103, 5-(6-chloro-5-fluoro-1H-indole-2-carbonyl)-N-[(2R)-1,1,1-trifluoropropan-2-yl]-4H,5H,6H,7H-[1,2]oxazolo[4,5-c]pyridine-3-carboxamide] | < 5 µM | < 1 µM | –
C[C@@H](NC(=O)c1noc2c1CN(C(=O)c1cc3c(Cl)cccc3[nH]1)CC2)C(F)(F)F [Example 104, 5-(4-chloro-1H-indole-2-carbonyl)-N-[(2R)-1,1,1-trifluoropropan-2-yl]-4H,5H,6H,7H-[1,2]oxazolo[4,5-c]pyridine-3-carboxamide] | < 5 µM | < 1 µM | –
C[C@@H](NC(=O)c1noc2c1CN(C(=O)c1cc3c(F)c(F)ccc3[nH]1)CC2)C(F)(F)F [Example 105, 5-(4,5-difluoro-1H-indole-2-carbonyl)-N-[(2R)-1,1,1-trifluoropropan-2-yl]-4H,5H,6H,7H-[1,2]oxazolo[4,5-c]pyridine-3-carboxamide] | < 5 µM | < 1 µM | –
Cc1c(F)ccc2[nH]c(C(=O)N3CCc4onc(C(=O)N[C@H](C)C(F)(F)F)c4C3)cc12 [Example 106, 5-(5-fluoro-4-methyl-1H-indole-2-carbonyl)-N-[(2R)-1,1,1-trifluoropropan-2-yl]-4H,5H,6H,7H-[1,2]oxazolo[4,5-c]pyridine-3-carboxamide] | < 5 µM | < 1 µM | –
Cc1cc(F)cc2[nH]c(C(=O)N3CCc4onc(C(=O)N[C@H](C)C(F)(F)F)c4C3)cc12 [Example 107, 5-(6-fluoro-4-methyl-1H-indole-2-carbonyl)-N-[(2R)-1,1,1-trifluoropropan-2-yl]-4H,5H,6H,7H-[1,2]oxazolo[4,5-c]pyridine-3-carboxamide] | < 5 µM | < 1 µM | –
CN(C(=O)c1noc2c1CN(C(=O)c1cc3ccccc3[nH]1)CC2)C1([C@H]2OC[C@H](N)CO2)CC1 [Example 108, 5-(1H-indole-2-carbonyl)-N-methyl-N-{1-[(2r,5r)-5-amino-1,3-dioxan-2-yl]cyclopropyl}-4H,5H,6H,7H-[1,2]oxazolo[4,5-c]pyridine-3-carboxamide] | < 5 µM | < 1 µM | –
CN(C(=O)c1onc2c1CN(C(=O)c1cc3ccccc3[nH]1)CC2)C1(c2ccc(C(=O)O)cc2)CC1 [Example 109, 4-{1-[N-methyl-5-(1H-indole-2-carbonyl)-4H,5H,6H,7H-[1,2]oxazolo[4,3-c]pyridine-3-amido]cyclopropyl}benzoic acid] | < 5 µM | < 1 µM | –
CN(C(=O)c1cnn2c1CN(C(=O)c1cc3c(Cl)c(F)c(Cl)cc3[nH]1)CC2)C1(c2ccc(C(=O)O)cc2)CC1 [Example 110, 4-{1-[N-methyl-5-(4,6-dichloro-5-fluoro-1H-indole-2-carbonyl)-4H,5H,6H,7H-pyrazolo [1,5-a]pyrazine-3-amido]cyclopropyl}benzoic acid] | – | < 1 µM | < 5 µM

Reference: patent publication US20220306647A1, “NOVEL INDOLE-2-CARBOXAMIDES ACTIVE AGAINST THE HEPATITUS B VIRUS (HBV)” (AICURIS GMBH & CO. KG, priority 2019, published 2022)
